Data taken from publication PMC8625051, “Wound Healing Metabolites from Peters’ Elephant-Nose Fish Oil: An In Vivo Investigation Supported by In Vitro and In Silico Studies” (Marine Drugs, 2021).

Key:
Format in all cases: biochemical
[1] = Hydrogen peroxide scavenging activity
Protocol: The residual H2O2 was determined colorimetrically. Briefly, 20 µL of the sample was added to 500 µL of H2O2 and incubated for 10 min., at 37 °C. […] The optical density of the colored product was measured at 510 nm using ascorbic acid as a positive control. The percentage of H2O2 scavenging activity was calculated by using the following formula (Equation (1)). (1) Scavenging activity=A control – A sample/A control×100 IC50 of each sample was determined at four different concentrations using Graph pad prism 7 software.

[2] = Superoxide radical scavenging activity
Protocol: The superoxide anion scavenging activity was measured as previously performed by […] et al., 2007 [57]. […] The reaction was initiated by adding 0.1 mL PMS solution (0.12 mM) to the mixture, incubated at 25 °C for 5 min., and the optical density was measured at 560 nm, compared to the reference ascorbic acid. The percentage inhibition was calculated using the following formula, Equation (2). (2) Superoxide scavenging activity=A control - A sample/A control×100 IC50 was calculated using Graph pad prism 7 software by performing the test at four different concentrations.

COX-1 = target: T1, COX-1 (Ovis aries, UniProt P05979); experiment: In vitro COX-1 inhibitory assay (fluorometric screening kit, Biovision)
T1 construct: purchased Biovision
T1 sequence (P05979 25-600): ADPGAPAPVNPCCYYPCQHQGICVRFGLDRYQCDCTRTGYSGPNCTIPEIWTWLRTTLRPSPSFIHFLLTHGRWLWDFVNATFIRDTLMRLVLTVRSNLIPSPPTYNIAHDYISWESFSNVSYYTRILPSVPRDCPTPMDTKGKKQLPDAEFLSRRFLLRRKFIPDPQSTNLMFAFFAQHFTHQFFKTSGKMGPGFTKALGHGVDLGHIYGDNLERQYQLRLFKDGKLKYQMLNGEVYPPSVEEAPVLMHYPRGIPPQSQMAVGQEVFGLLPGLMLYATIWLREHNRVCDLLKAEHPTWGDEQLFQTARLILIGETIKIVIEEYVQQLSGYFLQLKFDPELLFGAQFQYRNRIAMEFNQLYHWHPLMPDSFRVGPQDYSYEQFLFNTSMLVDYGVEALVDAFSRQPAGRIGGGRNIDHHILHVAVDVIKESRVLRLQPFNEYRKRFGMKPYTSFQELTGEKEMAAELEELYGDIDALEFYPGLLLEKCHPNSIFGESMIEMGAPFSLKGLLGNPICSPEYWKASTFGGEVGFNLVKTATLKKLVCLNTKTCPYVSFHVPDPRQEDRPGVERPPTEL
Protocol: (§1) The in vitro inhibitory assays of the isolated compounds against COX-1 and COX-2 were determined by using fluorometric-based screening kits (Biovision, Switzerland) according to the manufacturer’s protocol. These assays are based on the detection of the florescence produced by prostaglandin G2, i.e., the intermediate product produced by the COX-1 and -2 enzymes. The enzymes solutions were prepared by adding […] of dd. H2O to the lyophilized enzymes in the kit. The diluted COX cofactor was formulated by mixing the COX assay buffer (398 mL) and COX Cofactor (2 mL). 5 mL of arachidonic acid were added to 5 mL of NaOH and then diluted by 90 mL of double distilled H2O to produce dilute arachidonic acid/NaOH solution. Subsequently, all these prepared solutions were mixed to produce the reaction mixture ([…]). Different concentrations of the test compounds were added to the previous solution. The reaction mixtures were then incubated at 25 °C for 10 min. […] These assays of test compounds, blank, and reference inhibitors were carried out in triplicates. IC50 values were calculated by GraphPad software (version 7.0), where the percentage inhibitions were plotted versus the log concentrations. Dividing the IC50 calculated for […] by the IC50 calculated for […] was applied to determine the Selectivity index (SI).

COX-2 = target: T2, COX-2 (Homo sapiens, UniProt P35354); experiment: In vitro COX-2 inhibitory assay (fluorometric screening kit, Biovision)
T2 construct: purchased Biovision
T2 sequence (P35354 18-604): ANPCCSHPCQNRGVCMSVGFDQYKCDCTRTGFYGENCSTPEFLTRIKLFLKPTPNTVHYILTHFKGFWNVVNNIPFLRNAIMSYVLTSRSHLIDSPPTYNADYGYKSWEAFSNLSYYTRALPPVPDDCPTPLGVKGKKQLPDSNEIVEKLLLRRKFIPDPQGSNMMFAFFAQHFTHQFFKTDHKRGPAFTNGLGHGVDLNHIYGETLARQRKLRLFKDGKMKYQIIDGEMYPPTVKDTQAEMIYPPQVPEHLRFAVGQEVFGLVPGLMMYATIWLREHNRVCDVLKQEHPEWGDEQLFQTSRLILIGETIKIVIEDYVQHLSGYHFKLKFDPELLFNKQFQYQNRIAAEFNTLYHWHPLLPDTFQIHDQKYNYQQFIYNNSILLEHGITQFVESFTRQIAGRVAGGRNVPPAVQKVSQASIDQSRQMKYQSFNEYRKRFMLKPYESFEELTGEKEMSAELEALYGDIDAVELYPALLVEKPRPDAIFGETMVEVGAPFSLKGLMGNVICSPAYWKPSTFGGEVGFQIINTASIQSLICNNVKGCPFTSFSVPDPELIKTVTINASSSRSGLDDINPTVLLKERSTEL
Protocol: as §1

O=C1O[C@H]([C@@H](O)CO)C(O)=C1O [ascorbic acid]
H2O2 scavenging IC50 [1]: 174.2 µg/mL
superoxide radical scavenging IC50 [2]: 164 µg/mL

CCCCCCCCCCCCCCCC(=O)O [Compound 2, palmitic acid]
IC50 (COX-1): > 100 µM
IC50 (COX-2): > 100 µM

CCCCCCC=CCC=CCC=CCC=CCCCCC(=O)O [Compound 4, 6,9,12,15-docosatetraenoic acid]
IC50 (COX-1): 18.5 ± 0.4 µM
IC50 (COX-2): 2.41 ± 0.2 µM
COX-2/COX-1 (COX-2; selectivity index, ratio of IC50 values): 0.13

CCCCCCCCCCc1ccccc1O [Compound 6, 2-decylphenol]
IC50 (COX-1): > 100 µM
IC50 (COX-2): > 100 µM

CCCCCC/C=C\CCCCCCCC(=O)O [Compound 1, palmitoleic acid]
IC50 (COX-1): > 100 µM
IC50 (COX-2): > 100 µM

CCCCCCCC/C=C\CCCCCCCC(=O)O [Compound 3, oleic acid]
IC50 (COX-1): > 100 µM
IC50 (COX-2): > 100 µM

CC(C)CCC[C@@H](C)[C@H]1CC[C@H]2[C@@H]3CC=C4C[C@@H](O)CC[C@]4(C)[C@H]3CC[C@]12C [Compound 5, cholesterol]
IC50 (COX-1): > 100 µM
IC50 (COX-2): > 100 µM
